According to patent US12643879B2, “Functionalized heterocyclic compounds as modulators of stimulator of interferon genes (STING)” (RYVU THERAPEUTICS S.A., priority 2019, dated 2026):

Assays:
[1] = test system: NF-κB pathway in THP-1 dual cells; assay: THP-1 Dual reporter assay, NF-κB pathway (SEAP); format: cell-based; settings: Homo sapiens, THP1-Dual; 18 h stimulation, absorbance at 630 or 655 nm; read-out: THP1 Dual EC50 (μM) NFkB
In short: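 Luminescence (IRF arm, luciferase under ISG54 minimal promoter with five ISREs) and absorbance at 630 or 655 nm (NF-κB arm, SEAP under IFN-β minimal promoter with NF-κB elements) were measured in supernatants of THP-1 dual cells stimulated 18 h with compound.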

human STING = human STING (Homo sapiens, UniProt Q86WV6); assay: Fluorescence Thermal Shift assay (binding to STING); settings: STING 0.1 mg/mL, SyproOrange, 25 to 99° C.
In short: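 Human STING (0.1 mg/mL final) preincubated 20 min with compounds in 50 mM Hepes, 150 mM NaCl, pH 7.5, then SyproOrange added. Thermal unfolding 25–99 °C at 0.033 °C/s continuous ramp monitored by fluorescence.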

[2] = test system: interferon regulatory factor (IRF) pathway in THP-1 dual cells; assay: THP-1 Dual reporter assay, IRF pathway (luciferase); format: cell-based; settings: Homo sapiens, THP1-Dual; 18 h stimulation, luminescence; read-out: THP1 Dual EC50 (μM) IRF
In short: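 Readouts come from THP-1 dual cell supernatant taken 18 h after STING agonist addition. SEAP activity is developed in detection medium for 1–2 h at 37° C and read at 630/655 nm; luciferase is read by luminescence immediately after reagent addition.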

[3] = test system: CT26 murine colon carcinoma allografts; assay: In vivo anti-tumor efficacy in CT26 allografts; design: species or system female Balb/C mice; settings: intravenously, once every fifth day on three occasions
Experimental: The efficacy of Example 4, Example 31 and Example 57 was evaluated in established CT26 murine colon carcinoma allografts in female Balb/C mice. Compounds were formulated in 5% ethanol with 10% Captisol in PBS and administered intravenously, once every fifth day on three occasions. The solution was prepared fresh prior to each administration. […] By the end of the study there was one complete response among animals treated at 10 mg/kg of Example 4. […] By the end of the study, on day 43, there was one complete response recorded in group treated at 20 mg/kg of Example 57.

human STING, sequence (Q86WV6 whole entry H232R): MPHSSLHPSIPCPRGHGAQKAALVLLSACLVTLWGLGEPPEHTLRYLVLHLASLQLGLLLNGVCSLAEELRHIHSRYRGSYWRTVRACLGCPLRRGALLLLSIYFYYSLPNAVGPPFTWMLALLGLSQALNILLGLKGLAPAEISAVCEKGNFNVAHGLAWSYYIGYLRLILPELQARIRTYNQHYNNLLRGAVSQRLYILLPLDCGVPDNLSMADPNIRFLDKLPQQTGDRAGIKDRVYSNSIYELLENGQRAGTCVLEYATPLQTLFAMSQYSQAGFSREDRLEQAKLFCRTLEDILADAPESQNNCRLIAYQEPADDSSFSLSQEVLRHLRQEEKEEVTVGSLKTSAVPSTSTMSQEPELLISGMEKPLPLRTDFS

SMILES | EC50 [1] [µM] | hSTING FTS binding assay (ΔT C. °) (human STING) | EC50 [2] [µM] | also measured
Cc1ccc(N2CCC[C@H](N(Cc3ccnc(C)c3)Cc3cn(C4CC4)c4cc(N5CCC[C@@H](O)C5)c(F)cc4c3=O)C2)cn1.Cl [Example 28, 1-cyclopropyl-6-fluoro-7-[(3R)-3-hydroxypiperidin-1-yl]-3-({[(3S)-1-(6-methylpyridin-3-yl)piperidin-3-yl][(2-methylpyridin-4-yl)methyl]amino}methyl)-1,4-dihydroquinolin-4-one hydrochloride] | < 1 | +++ (+++=ΔTm ≥20° C.) | < 1 | –
CNC1CCN(c2cc3c(cc2F)c(=O)c(CN(Cc2ccnc(C)c2)[C@H]2CCCN(c4ccc(C)nc4)C2)cn3C2CC2)C1 (stereo partly drawn) [Example 33, 1-cyclopropyl-6-fluoro-7-[3-(methylamino)pyrrolidin-1-yl]-3-({[(3S)-1-(6-methylpyridin-3-yl)piperidin-3-yl][(2-methylpyridin-4-yl)methyl]amino}methyl)-1,4-dihydroquinolin-4-one] | < 1 | +++ (+++=ΔTm ≥20° C.) | < 1 | –
CN[C@@H]1CCN(c2cc3c(cc2F)c(=O)c(CN(Cc2ccnc(C)c2)[C@H]2CCCN(c4ccc(C)nc4)C2)cn3C2CC2)C1.Cl [Example 55, 1-Cyclopropyl-6-fluoro-7-[(3R)-3-(methylamino)pyrrolidin-1-yl]-3-({[(3S)-1-(6-methylpyridin-3-yl)piperidin-3-yl][(2-methylpyridin-4-yl)methyl]amino}methyl)-1,4-dihydroquinolin-4-one hydrochloride] | < 1 | +++ (+++=ΔTm ≥20° C.) | < 1 | –
Cc1ccc(N2CCC[C@H](N(Cc3ccnc(C)c3)Cc3cn(C4CC4)c4cc(N5CC[C@H](N)C(F)(F)C5)c(F)cc4c3=O)C2)cn1.Cl (single isomer, unassigned) [Example 57] | – | +++ (+++=ΔTm ≥20° C.) | – | anti-tumor efficacy (tumor growth vs control group) ([3]; 5 mg/kg): minimal tumor growth delay; anti-tumor efficacy (tumor growth vs control group) ([3]; 10 mg/kg): moderately efficacious; anti-tumor efficacy (tumor growth vs control group) ([3]; 20 mg/kg): full efficacious; complete responses by the end of the study ([3]; 20 mg/kg, day 43): one; response of CT26 tumors to treatment [3]: responded prominently
Cc1ccc(N2CCC[C@H](N(Cc3ccnc(C)c3)Cc3cn(C4CC4)c4cc(N5CCC[C@H](O)C5)c(F)cc4c3=O)C2)cn1.Cl [Example 31, 1-cyclopropyl-6-fluoro-7-[(3S)-3-hydroxypiperidin-1-yl]-3-({[(3S)-1-(6-methylpyridin-3-yl)piperidin-3-yl][(2-methylpyridin-4-yl)methyl]amino}methyl)-1,4-dihydroquinolin-4-one hydrochloride] | < 1 | +++ (+++=ΔTm ≥20° C.) | < 1 | anti-tumor efficacy (tumor growth vs control group) ([3]; 7 mg/kg): slight tumor growth delay; anti-tumor efficacy (tumor growth vs control group) ([3]; 15 mg/kg): prominently efficacious; anti-tumor efficacy (tumor growth vs control group) ([3]; 30 mg/kg): prominently efficacious; complete responses by the end of the study ([3]; 30 mg/kg, day 43): two; response of CT26 tumors to treatment [3]: responded prominently
Cc1cc(CN(Cc2cn(C)c3ccccc3c2=O)[C@H]2CCCN(c3ccc(N)nc3)C2)ccn1 [Example 2, 3-({[(3S)-1-(6-Aminopyridin-3-yl)piperidin-3-yl][(2-methylpyridin-4-yl)methyl]amino}methyl)-1-methyl-1,4-dihydroquinolin-4-one] | < 1 | +++ (+++=ΔTm ≥20° C.) | < 1 | –
COCCn1cc(CN(Cc2ccnc(C)c2)[C@H]2CCCN(c3ccc(N)nc3)C2)c(=O)c2ccccc21.Cl [Example 21, 3-({[(3S)-1-(6-aminopyridin-3-yl)piperidin-3-yl][(2-methylpyridin-4-yl)methyl]amino}methyl)-1-(2-methoxyethyl)-1,4-dihydroquinolin-4-one hydrochloride] | < 1 | +++ (+++=ΔTm ≥20° C.) | < 1 | –
Cc1cc(CN(Cc2cn(C3CC3)c3cc(N4CCC[C@H](O)C4)c(F)cc3c2=O)[C@H]2CCCN(c3cccnc3)C2)ccn1.Cl [Example 86, 1-cyclopropyl-6-fluoro-7-[(3S)-3-hydroxypiperidin-1-yl]-3-({[(2-methylpyridin-4-yl)methyl][(3S)-1-(pyridin-3-yl)piperidin-3-yl]amino}methyl)-1,4-dihydroquinolin-4-one hydrochloride] | < 1 | +++ (+++=ΔTm ≥20° C.) | < 1 | –
Cc1ccc(N2CCC[C@H](N(Cc3ccnc(C)c3)Cc3cn(C4CC4)c4cc(N5CCC6NCCC6C5)c(F)cc4c3=O)C2)cn1 (stereo partly drawn) [Example 68, 1-cyclopropyl-6-fluoro-3-({[(3S)-1-(6-methylpyridin-3-yl)piperidin-3-yl][(2-methylpyridin-4-yl)methyl]amino}methyl)-7-{octahydro-1H-pyrrolo[3,2-c]pyridin-5-yl}-1,4-dihydroquinolin-4-one] | < 1 | +++ (+++=ΔTm ≥20° C.) | < 1 | –
Cc1ccc(N2CCC[C@H](N(Cc3ccnc(C)c3)Cc3cn(C4CC4)c4cc(N5CCC[C@H](N)C5)c(F)cc4c3=O)C2)cn1 [Example 16, 7-[(3S)-3-Aminopiperidin-1-yl]-1-cyclopropyl-6-fluoro-3-({[(3S)-1-(6-methylpyridin-3-yl)piperidin-3-yl][(2-methylpyridin-4-yl)methyl]amino}methyl)-1,4-dihydroquinolin-4-one] | < 1 | +++ (+++=ΔTm ≥20° C.) | < 1 | –
COc1cc(CN(Cc2cn(C3CC3)c3cc(F)c(F)cc3c2=O)[C@H]2CCCN(c3ccc(N)nc3)C2)ccn1.Cl [Example 4, 3-({[(3S)-1-(6-Aminopyridin-3-yl)piperidin-3-yl][(2-methoxypyridin-4-yl)methyl]amino}methyl)-1-cyclopropyl-6,7-difluoro-1,4-dihydroquinolin-4-one hydrochloride] | < 1 | +++ (+++=ΔTm ≥20° C.) | < 1 | anti-tumor efficacy (tumor growth vs control group) ([3]; 7 mg/kg): efficacious; anti-tumor efficacy (tumor growth vs control group) ([3]; 10 mg/kg): efficacious; complete responses by the end of the study ([3]; 10 mg/kg): one; response of CT26 tumors to treatment [3]: responded prominently
